For nine cell lines, relative viability results are on record in the supplement of paper PMC10307832.

What all share (assay): relative viability (nuclei count vs DMSO), 5 days (fraction); higher = more cells survive
Compound in assay [1]: NCC(=O)Nc1ccc(-n2nc(C(F)(F)F)cc2-c2ccc3c(ccc4ccccc43)c2)cc1 + Cc1nc(Nc2ncc(C(=O)Nc3c(C)cccc3Cl)s2)cc(N2CCN(CCO)CC2)n1 [Dasatinib] (partner 0.075 µM)
A digest of the protocol: (§1)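 Lung cancer cell lines were pin-tool dosed in 1536-well plates on the day after seeding, with either a lone drug or a fixed anchor-drug dose plus five library-drug doses (not always all listed) in √10 steps. Nuclei were counted on 4× images after 5 days. Relative viability is the ratio of treated-well to vehicle-well nuclei counts, with each value a median of duplicate plates.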

Compound in assay [2]: C1CSC2=C(C(=O)N1)SC3=C2C=C(C=C3)O [kb NB 142-70] + CS(=O)(=O)CCNCc1ccc(-c2ccc3ncnc(Nc4ccc(OCc5cccc(F)c5)c(Cl)c4)c3c2)o1 [Lapatinib] (partner 2 µM)
A digest of the protocol:
as §1

Compound in assay [3]: NCC(=O)Nc1ccc(-n2nc(C(F)(F)F)cc2-c2ccc3c(ccc4ccccc43)c2)cc1 + NC(=O)Nc1cc(-c2cccc(F)c2)sc1C(=O)N[C@H]1CCCNC1 [AZD7762] (partner 0.2 µM)
A digest of the protocol: as §1

Compound in assay [4]: NCC(=O)Nc1ccc(-n2nc(C(F)(F)F)cc2-c2ccc3c(ccc4ccccc43)c2)cc1 + CCNC(=O)c1noc(-c2cc(C(C)C)c(O)cc2O)c1-c1ccc(CN2CCOCC2)cc1 [Luminespib] (partner 0.01 µM)
The procedure, abridged: as §1

EMC-BAC-2: the relative viability in assay [1] (first compound 0.02 µM) was determined as 0.316; in assay [1] (first compound 0.06325 µM), 0.286; in assay [1] (first compound 0.2 µM), 0.325; in assay [1] (first compound 0.6325 µM) it was 0.377; in assay [1] (first compound 2 µM), 0.338; in assay [2] (first compound 0.1 µM), 0.942. In addition, the relative viability in assay [2] (first compound 1 µM) stood at 0.898; in assay [2] (first compound 3.162 µM), 0.743; in assay [3] (first compound 0.02 µM) it was 1.09; in assay [3] (first compound 0.06325 µM), 1.1; in assay [3] (first compound 0.2 µM) it was 1.1; in assay [3] (first compound 0.6325 µM), 1.13. For the same cell line, the relative viability in assay [3] (first compound 2 µM) stood at 1.16; in assay [4] (first compound 0.02 µM), 1.11; in assay [4] (first compound 0.06325 µM) it was 1.23; in assay [4] (first compound 0.2 µM), 1.18; in assay [4] (first compound 0.6325 µM), 1.17; in assay [4] (first compound 2 µM), 1.18.

Take EPLC-272H: the relative viability came to 0.35 in assay [1] (first compound 0.02 µM); 0.406 in assay [1] (first compound 0.06325 µM); 0.351 in assay [1] (first compound 0.2 µM); 0.357 in assay [1] (first compound 0.6325 µM); 0.671 in assay [1] (first compound 2 µM); 0.937 in assay [2] (first compound 0.1 µM). In addition, the relative viability amounted to 0.817 in assay [2] (first compound 1 µM); 0.649 in assay [2] (first compound 3.162 µM); 0.362 in assay [3] (first compound 0.02 µM); 0.208 in assay [3] (first compound 0.06325 µM); 0.196 in assay [3] (first compound 0.2 µM); 0.167 in assay [3] (first compound 0.6325 µM). For the same cell line, the relative viability in assay [3] (first compound 2 µM) was 0.149; in assay [4] (first compound 0.02 µM), 0.265; in assay [4] (first compound 0.06325 µM), 0.264; in assay [4] (first compound 0.2 µM), 0.367; in assay [4] (first compound 0.6325 µM), 0.186; in assay [4] (first compound 2 µM) it was 0.35.

For H3255, the relative viability is 0.477 in assay [1] (first compound 0.02 µM); 0.343 in assay [1] (first compound 0.06325 µM); 0.348 in assay [1] (first compound 0.2 µM); 0.337 in assay [1] (first compound 0.6325 µM); 0.347 in assay [1] (first compound 2 µM); 0.271 in assay [2] (first compound 0.1 µM). In addition, the relative viability in assay [2] (first compound 1 µM) is 0.195; in assay [2] (first compound 3.162 µM), 0.234; in assay [3] (first compound 0.02 µM) it was 0.853; in assay [3] (first compound 0.06325 µM), 0.914; in assay [3] (first compound 0.2 µM) it was 0.959; in assay [3] (first compound 0.6325 µM), 0.974. Further, the relative viability was determined as 0.898 in assay [3] (first compound 2 µM); 0.781 in assay [4] (first compound 0.02 µM); 1.03 in assay [4] (first compound 0.06325 µM); 0.9 in assay [4] (first compound 0.2 µM); 0.777 in assay [4] (first compound 0.6325 µM); 0.984 in assay [4] (first compound 2 µM).

On to HARA, for which the relative viability in assay [1] (first compound 0.02 µM) is 0.227; in assay [1] (first compound 0.06325 µM), 0.241; in assay [1] (first compound 0.2 µM), 0.233; in assay [1] (first compound 0.6325 µM), 0.256; in assay [1] (first compound 2 µM), 0.296; in assay [2] (first compound 0.1 µM), 0.943. For the same cell line, the relative viability in assay [2] (first compound 1 µM) was determined as 0.634; in assay [2] (first compound 3.162 µM), 0.661; in assay [3] (first compound 0.02 µM), 0.227; in assay [3] (first compound 0.06325 µM), 0.429; in assay [3] (first compound 0.2 µM) it was 0.304; in assay [3] (first compound 0.6325 µM), 0.392. For the same cell line, the relative viability came to 0.473 in assay [3] (first compound 2 µM); 0.773 in assay [4] (first compound 0.02 µM); 1.03 in assay [4] (first compound 0.06325 µM); 0.735 in assay [4] (first compound 0.2 µM); 0.484 in assay [4] (first compound 0.6325 µM); 0.818 in assay [4] (first compound 2 µM).

HCC-15: the relative viability in assay [1] (first compound 0.02 µM) was 0.619; in assay [1] (first compound 0.06325 µM), 0.709; in assay [1] (first compound 0.2 µM), 0.651; in assay [1] (first compound 0.6325 µM), 0.632; in assay [1] (first compound 2 µM), 0.673; in assay [2] (first compound 0.1 µM) it was 0.854. Also, the relative viability in assay [2] (first compound 1 µM) is 0.932; in assay [2] (first compound 3.162 µM), 0.743; in assay [3] (first compound 0.02 µM), 1.28; in assay [3] (first compound 0.06325 µM), 1.13; in assay [3] (first compound 0.2 µM) it was 1.21; in assay [3] (first compound 0.6325 µM) it was 1.36. For the same cell line, the relative viability in assay [3] (first compound 2 µM) worked out at 1.06; in assay [4] (first compound 0.02 µM), 0.332; in assay [4] (first compound 0.06325 µM) it was 0.306; in assay [4] (first compound 0.2 µM), 0.302; in assay [4] (first compound 0.6325 µM), 0.365; in assay [4] (first compound 2 µM), 0.335.

Turning to HCC-44, the relative viability in assay [2] (first compound 0.1 µM) turned out to be 1.02; in assay [2] (first compound 1 µM) it was 1.03; in assay [2] (first compound 3.162 µM) it was 0.996; in assay [3] (first compound 0.02 µM), 1; in assay [3] (first compound 0.06325 µM) it was 1.05; in assay [3] (first compound 0.2 µM), 0.997. The relative viability in assay [3] (first compound 0.6325 µM) was 1.01; in assay [3] (first compound 2 µM) it was 1.03; in assay [4] (first compound 0.02 µM) it was 1.1; in assay [4] (first compound 0.06325 µM), 1.05; in assay [4] (first compound 0.2 µM), 1.06; in assay [4] (first compound 0.6325 µM) it was 1.03. Also, the relative viability in assay [4] (first compound 2 µM) amounted to 0.938.

On to HCC-78, for which the relative viability in assay [1] (first compound 0.02 µM) was 0.466; in assay [1] (first compound 0.06325 µM), 0.432; in assay [1] (first compound 0.2 µM) it was 0.357; in assay [1] (first compound 0.6325 µM) it was 0.425; in assay [1] (first compound 2 µM), 0.429; in assay [2] (first compound 0.1 µM), 0.919. In addition, the relative viability in assay [2] (first compound 1 µM) is 0.941; in assay [2] (first compound 3.162 µM), 0.744; in assay [3] (first compound 0.02 µM) it was 0.77; in assay [3] (first compound 0.06325 µM), 0.597; in assay [3] (first compound 0.2 µM), 0.599; in assay [3] (first compound 0.6325 µM) it was 0.668. Also, the relative viability in assay [3] (first compound 2 µM) is 0.642.

On to HCC-366, for which the relative viability in assay [1] (first compound 0.02 µM) was 0.659; in assay [1] (first compound 0.06325 µM), 0.644; in assay [1] (first compound 0.2 µM) it was 0.615; in assay [1] (first compound 0.6325 µM) it was 0.621; in assay [1] (first compound 2 µM) it was 0.624; in assay [2] (first compound 0.1 µM), 1.06. The relative viability is 0.926 in assay [2] (first compound 1 µM); 0.927 in assay [2] (first compound 3.162 µM); 0.236 in assay [3] (first compound 0.02 µM); 0.205 in assay [3] (first compound 0.06325 µM); 0.31 in assay [3] (first compound 0.2 µM); 0.276 in assay [3] (first compound 0.6325 µM). Moreover, in assay [3] (first compound 2 µM), the relative viability came to 0.333.

As to HCC-827, the relative viability in assay [1] (first compound 0.02 µM) worked out at 0.371; in assay [1] (first compound 0.06325 µM) it was 0.282; in assay [1] (first compound 0.2 µM), 0.336; in assay [1] (first compound 0.6325 µM), 0.329; in assay [1] (first compound 2 µM), 0.35; in assay [2] (first compound 0.1 µM), 0.206. Besides, the relative viability in assay [2] (first compound 1 µM) was found to be 0.192; in assay [2] (first compound 3.162 µM) it was 0.173; in assay [3] (first compound 0.02 µM) it was 0.213; in assay [3] (first compound 0.06325 µM), 0.189; in assay [3] (first compound 0.2 µM), 0.245; in assay [3] (first compound 0.6325 µM), 0.316. The relative viability stood at 0.235 in assay [3] (first compound 2 µM); 0.679 in assay [4] (first compound 0.02 µM); 0.852 in assay [4] (first compound 0.06325 µM); 0.59 in assay [4] (first compound 0.2 µM); 0.731 in assay [4] (first compound 0.6325 µM); 0.684 in assay [4] (first compound 2 µM).
